Data on one compound can be found in patent US20170216315A1 (priority 2016, published 2017).

Marks after values point to notes of the source that are not given here.

What all share (format): in vivo, mice
Experiment [1] concerns alanine aminotransferase (ALT). In words: Activity of ALT in serum. The conditions noted are these: EK100 5 and 10 mg/kg/day (EK100_5X, EK100_10X) vs EtOH group; p<0.05; FIG. 8. The text has this: It has been known that both aspartate aminotransferase (AST) and alanine aminotransferase (ALT) are amino acid metabolic enzymes, which are widely present in the heart, liver, skeletal muscle, kidney and brain. When cells in organs are injured, AST and ALT will be released into the blood. Therefore, the activities of AST and ALT can be used as the injury markers of the above organs to detect organ injuries, wherein the higher activities of AST and ALT represent that organ injuries are more serious. For example, there is much more ALT in the liver. A higher activity of ALT in the liver would indicate a more serious injury.
To understand the effects of alcohol consumption and ergostatrien-3β-ol intake on the injury conditions of mice organs, mouse serum samples of each group provided in [Preparation Examples] C-2 (200 μl per group) were placed into automatic dry-biochemistry analyzer (Arkray, Inc., Japan, Spotechem™ EZ, SP-4430) with AST/ALT expert analytic test paper (Arkray, Inc., Japan, Spotechem™ II) to detect the activities of AST and ALT.

Experiment [2] deals with glutathione peroxidase (GPx). In words: Activity of GPx in mouse liver. The conditions noted are these: for Activity of GPx: liver homogenate, alcoholic liquid diet, 4 weeks.
The test system of experiment [3] is acetaldehyde dehydrogenase (ALDH). In words: Activity of ALDH in liver homogenate. The note with it: EK100 1, 5, 10 mg/kg/day vs control group; p<0.05; FIG. 14B. As to the method: D-3 were analyzed. The operation steps were as follows: (i) 100 μl of liver homogenate and 1 ml of sodium pyrophosphate buffer (pH 8.8, 1 mM NAD^+, 0.2 mM 4-methylpyrazole, 1 mM MgCl2, 2 μM rotenone, 1% Triton X-100) were well mixed; the mixture was left standing in the dark at room temperature for 20 minutes; and then the absorbance (A) of the mixture was measured at 340 nm wavelength; (ii) 100 μl of liver homogenate and 1 ml of sodium pyrophosphate buffer (pH 8.8, 1 mM NAD^+, 0.2 mM 4-methylpyrazole, 1 mM MgCl2, 2 μM rotenone, 1% Triton X-100, 5 mM acetaldehyde) were well mixed; the mixture was left standing in the dark at room temperature for 20 minutes, and then the absorbance (B) of the mixture was measured at 340 nm wavelength; (iii) absorbance (A) and absorbance (B) were substituted into formula 3 below to calculate the activity of ALDH (μmole/min/mg protein).

Take `CC(C)[C@@H](C)/C=C/[C@@H](C)[C@H]1CC[C@H]2C3=CCC4C[C@@H](O)CC[C@]4(C)C3=CC[C@]12C` (stereo partly drawn) [EK100]: the “Activity of ALT in serum compared to EtOH” value in experiment [1] is given as “significantly decreased”. Moreover, in experiment [2] (EK100 10 mg/kg/day (EK100_10X) vs EtOH group, p<0.05), the “Activity of GPx in liver compared to EtOH” value is given as “significantly increased”. Also, the “Activity of GPx” value is 114.16 ± 2.40^b unit/mg protein in experiment [2] (EK100_1X: 1 mg/kg/day gavage), 110.74 ± 3.52^b unit/mg protein in experiment [2] (EK100_5X: 5 mg/kg/day gavage) and 131.89 ± 6.83^a unit/mg protein in experiment [2] (EK100_10X: 10 mg/kg/day gavage). In experiment [3], the “Activity of ALDH in liver compared to control” value is on record as “significantly increased”.
